Source: patent US11413278B2, “Compounds and methods for promoting stress resistance” (priority 2015, dated 2022)
“Also recorded” adds a separate entry of the source. Read-outs that look alike come from different tables or passages of the source.

How the values were obtained:
C. elegans = assay type: in vivo, Caenorhabditis elegans; conditions: in vivo
Protocol: The worms were treated with the small molecules in liquid, with H2O2 (500 μM final concentration) added on day 4 of adulthood, and scored for viability everyday
FUdR was used to block progeny production. The molecules were analyzed in 96-well plates, with 4 wells for each small molecule. Multiple control wells with DMSO (0.2% final concentration) were included. […] Day 1 adults were transferred onto mini-plates, seeded with OP50 bacteria (UV-irradiated, kanamycin-treated) and supplemented with small molecules (˜60 μM final concentration, 0.2% DMSO). Worms were scored every other day. Cumulative survival was analyzed using the STATA software (log-rank test). […] The worms were treated with the small molecules in liquid, with H2O2 (500 μM final concentration) added on day 4 of adulthood, and scored for viability every day.

WI-38 cells = assay: MMS resistance assay; assay type: cell-based, human; conditions: for fold induction at 10 µM: Homo sapiens, 12 h, normalized ATP measurement; for Assay 3: MMS-resistant / Assay 5: Triple resistant: YES/NO; for Assay 3: MMS-resistant: * indicates partial; for Assay 5: Triple resistant: H2O2, cadmium and MMS
How it was run: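 WI-38 cells were given compounds at five final concentrations (0.25–20 μM) in triplicate, followed by cadmium or MMS for 12 h. For MMS, medium was switched from OptiMEM+10% FBS to serum-free DMEM+2% BSA when compounds were added, 24 h before stressor. Two independent assays were run, analysed by global variance t-test.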

FOXO3 = assay: qPCR analysis of FOXO3-regulated genes; assay type: cell-based, human; conditions: for fold induction at 10 µM: Homo sapiens; for K = Sestrin induction: score
How it was run: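 WI-38 cells treated with compound at 10 μM for 24 h, followed by Cells-to-Ct RT-qPCR of FOXO3 target genes normalised to B2M, PPIA and GAPDH. FOXO3 or NRF2 dependence tested by prior 10 nM siRNA knockdown (36 h transfection, compound added ~24 h after replating).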

[1] = Exp. 1, WI-38 cells, read-out: Exp. 1, under MMS stress treatment, at 10 uM (fold change)
[2] = Exp. 2, WI-38 cells, read-out: Exp. 2, under MMS stress treatment, at 10 uM (fold change)
[3] = score in summary of 38 core set hits
[4] = 24 h, Assay 10(m), at 10 uM, qPCR, read-out: Induction of FOXO3-regulated genes: CAT normalized fold-change
[5] = 24 h, Assay 10(m), at 10 uM, qPCR, read-out: Induction of FOXO3-regulated genes: GADD45A normalized fold-change
[6] = 24 h, Assay 10(m), at 10 uM, qPCR, read-out: Induction of FOXO3-regulated genes: SESN1 normalized fold-change
[7] = 24 h, Assay 10(m), at 10 uM, qPCR, read-out: Induction of FOXO3-regulated genes: TXNIP normalized fold-change
[8] = 10 μM, 24 hrs, WI-38 cells, qPCR, normalized to B2M, n = 4, read-out: CAT expression, normalized fold change (FOXO3-regulated gene)
[9] = 10 μM, 24 hrs, WI-38 cells, qPCR, normalized to B2M, n = 4, read-out: SESN1 expression, normalized fold change (FOXO3-regulated gene)
[10] = 10 μM, 24 hrs, WI-38 cells, qPCR, normalized to B2M, n = 4, read-out: TXNIP expression, normalized fold change (FOXO3-regulated gene)
[11] = WI-38 cells, 10 μM, 24 hrs, n=4, qPCR normalized by B2M, read-out: DDB1 Normalized fold change
[12] = WI-38 cells, 10 μM, 24 hrs, n=4, qPCR normalized by B2M, read-out: GADD45A Normalized fold change
[13] = WI-38 cells, 10 μM, 24 hrs, n=4, qPCR normalized by B2M, read-out: SESN1 Normalized fold change
[14] = fold change, qPCR, WI-38 cells, 10 μM, 24 hrs, read-out: Summary of effects on FOXO3-regulated genes: CAT
[15] = fold change, qPCR, WI-38 cells, 10 μM, 24 hrs, read-out: Summary of effects on FOXO3-regulated genes: SESN1
[16] = fold change, qPCR, WI-38 cells, 10 μM, 24 hrs, read-out: Summary of effects on FOXO3-regulated genes: TXNIP
[17] = qPCR, WI-38 cells, 10 μM, n=4, 24 hrs, normalized by B2M, read-out: CAT Normalized fold change
[18] = qPCR, WI-38 cells, 10 μM, n=4, 24 hrs, normalized by B2M, read-out: SOD2 Normalized fold change
[19] = qPCR, WI-38 cells, 10 μM, n=4, 24 hrs, normalized by B2M, read-out: TXNIP Normalized fold change
[20] = 24 h, Assay 10(m), at 10 uM, qPCR, read-out: Induction of FOXO3-regulated genes: DDB1 normalized fold-change

Row | Structure (SMILES) | L = H2O2-resistance in worms (C. elegans) | N = H2O2-resistance in woms (C. elegans) | fold induction at 10 µM (WI-38 cells; [1]) | fold induction at 10 µM (WI-38 cells; [2]) | Assay 3: MMS-resistant (WI-38 cells) | Assay 5: Triple resistant (WI-38 cells) | B = MMS resistant (WI-38 cells; [3]) | B = MMS resistant (WI-38 cells; summary score) | D = Triple resistant (WI-38 cells; summary score) | E = Potential FOXO3 Activation (FOXO3; 2-point score) | fold induction at 10 µM (FOXO3; [8]) | fold induction at 10 µM (FOXO3; [11]) | fold induction at 10 µM (FOXO3; [12]) | fold induction at 10 µM (FOXO3; [13]) | fold induction at 10 µM (FOXO3; [14]) | fold induction at 10 µM (FOXO3; [17]) | fold induction at 10 µM (FOXO3; [18]) | fold induction at 10 µM (FOXO3; [19]) | K = Sestrin induction (FOXO3) | E = Potential FOXO3 Activation (FOXO3; summary score) | also measured
1 | O=C(Nc1cccc(C(F)(F)F)c1)c1ccc([N+](=O)[O-])o1 [Gr-1E] | 0 | 0 | 0.72 | 1.21 | NO * | YES | 0 | 0 | 0 | 0 | 1.45 | 1.39 | 0.752 | 1.4 | 1.45 | 1.45 | 1.46 | 2.02 | 0 | 0 | Induction of at least two of five FOXO3-regulated genes (SOD2, GADD45A, CAT, DDB1, TXNIP) (FOXO3; 10 μM, 24 hrs, WI-38): significant induction; also recorded: significant, induction; fold induction at 10 µM (FOXO3; [4]): 1.38; fold induction at 10 µM (FOXO3; [5]): 0.62; fold induction at 10 µM (FOXO3; [6]): 1.34; fold induction at 10 µM (FOXO3; [7]): 1.33; fold induction at 10 µM (FOXO3; [9]): 1.4; fold induction at 10 µM (FOXO3; [10]): 2.02; fold induction at 10 µM (FOXO3; [15]): 1.4; fold induction at 10 µM (FOXO3; [16]): 2.02
2 | Cc1ccc(NC(=O)c2ccc([N+](=O)[O-])o2)cc1C [Gr-1F] | 0 | 0 | 0.74 | 2.07 | YES | YES | 0 | 1 | 2 | 0 | 1.35 | 1.37 | 1.02 | 2 | 1.35 | 1.35 | 1.68 | 1.54 | 1 | 0 | fold induction at 10 µM (FOXO3; [20]): 1.12; fold induction at 10 µM (FOXO3; [5]): 0.8; fold induction at 10 µM (FOXO3; [6]): 1.64; fold induction at 10 µM (FOXO3; WI-38, 24 h, read-out: SESN1 expression): > 1.5; fold induction at 10 µM (FOXO3; [9]): 2; fold induction at 10 µM (FOXO3; [15]): 2
3 | O=C(Nc1ccc(Cl)c(Cl)c1)c1ccc([N+](=O)[O-])o1 [Gr-1G] | 0 | 0 | 1.32 | 1.89 | – | – | 0 | 0 | 0 | 0 | 1.35 | 1.14 | 0.597 | 1.38 | 1.35 | 1.35 | 0.756 | 1.03 | 0 | 0 | SOD2 expression, normalized fold change (FOXO3-regulated gene) (FOXO3; 10 μM, 24 hrs, WI-38 cells, qPCR, normalized to B2M, n = 4): SOD2 0.76, fold; fold induction at 10 µM (FOXO3; [4]): 1.35; fold induction at 10 µM (FOXO3; [5]): 0.6; fold induction at 10 µM (FOXO3; 24 h, Assay 10(m), at 10 uM, qPCR, read-out: Induction of FOXO3-regulated genes: SOD2 normalized fold-change): 0.76; fold induction at 10 µM (FOXO3; 10 μM, 24 hrs, WI-38 cells, qPCR, normalized to B2M, n = 4, read-out: GADD45A expression, normalized fold change (FOXO3-regulated gene)): 0.6; fold induction at 10 µM (FOXO3; fold change, qPCR, WI-38 cells, 10 μM, 24 hrs, read-out: Summary of effects on FOXO3-regulated genes: GADD45A): 0.6; Summary of effects on FOXO3-regulated genes: SOD2 (FOXO3; fold change, qPCR, WI-38 cells, 10 μM, 24 hrs): SOD2 0.76,
4 | O=[N+]([O-])c1ccccc1S(=O)(=O)Nc1cccc2cccnc12 [Gr-3A] | 0 | 0 | 1 | 0.86 | YES | YES | 0 | 1 | 2 | 0 | 0.87 | 0.969 | 1.4 | 1.18 | 0.87 | 0.871 | 1.48 | 0.754 | 0 | 0 | fold induction at 10 µM (FOXO3; [4]): 0.83; fold induction at 10 µM (FOXO3; [20]): 0.81; fold induction at 10 µM (FOXO3; [6]): 1.21; fold induction at 10 µM (FOXO3; [7]): 0.64; fold induction at 10 µM (FOXO3; [9]): 1.18; fold induction at 10 µM (FOXO3; [10]): 0.75; fold induction at 10 µM (FOXO3; [15]): 1.18; fold induction at 10 µM (FOXO3; [16]): 0.75
5 | Cc1ccc(S(=O)(=O)Nc2cccc3cccnc23)cc1 [Gr-3B] | 0 | 0 | 1.72 | 1.33 | – | – | 0 | 0 | 0 | 0 | – | 1.12 | 1.16 | 1.07 | – | 1.11 | 1.14 | 1.06 | 0 | 0 | H2O2-resistance assay, 1st experiment (C. elegans): YES;
